Experimental data published in paper PMC9135303, “Interaction of fungal lipase with potential phytotherapeutics” (PLoS ONE, 2022).
Where two headings read alike, the source gives them in different places.

Key:
Aspergillus niger lipase [1] = assay: Lipase inhibition assay with pNPP substrate; format: biochemical; details: for inhibition of lipase activity (in words): 0.5 mmoles/litre to 1.5 mmoles/litre, pNPP as substrate; for inhibition of lipase: 1.5 mmol/litre, para-nitrophenyl palmitate (pNPP) substrate, 37°C; for lipase activity: at about 1.5mmoles/litre
Experimental: Lipase assays were performed in a 96-well, clear, flat-bottomed plate with 200 μl reaction volume. pNPP was used as a substrate with a reaction buffer of 50 mM sodium phosphate, 5 mM sodium taurocholate, and 10% isopropanol at pH 8.0 [8, 9]. Lipase assays was performed in 200 μl reaction volume and substrate conversion was monitored with a Multiskan Go spectrophotometer (Thermo Scientific) at 410 nm. All assays were run at 37°C and reported results are the average of three replicates that were blank subtracted. The Lipase inhibitory activity was expressed as percentage inhibition calculated as: % Inhibition = [(Acontrol − Atest sample)/[…]]*100.
Significant inhibition was obtained at 0.5 mmoles/litre. For all three molecules indicating structural changes begin well below this concentration. According to all binding experiments have been performed in concentration range at 50 μM to 400 μM.

Aspergillus niger lipase [2] = assay: Fluorescence quenching of lipase (Stern-Volmer and double-logarithmic plots); format: binding; details: for binding affinity with Aspergillus niger lipase (order of magnitude): conclusion, unit not given; for ksv (Stern-Volmer constant): pH 7.4, ligand 50-400 μM; for kq (quenching rate constant): pH 7.4, τ0 10^-9 s
Experimental: (§1) Lipase and HSA were dialyzed against KCl- buffer (pH 7) for 24 hrs. Stock solution of lipase was prepared in 10 mM phosphate buffer at pH 7.4 to obtain a particular concentration. […] These samples were incubated at 298.0 K for about 24 hrs.
(§2) Fluorescence spectra were recorded on Hitachi F-4010 spectrofluorometer equipped with circulating water bath to maintain the temperature of the cell. The quartz cell of path length 1.0 cm and band slit of 5.0 nm were used for all experiments. The excitation wavelength was 280 nm for lipase and HSA. Emission spectra were recorded from 300–450 nm for lipase and HSA protein.
(§3) Herein, the fluorescence intensities were corrected for absorption of the exciting light and reabsorption of the emitted light to decrease the inner filter effect according to the following equation [10] (Chi & Liu, 2011): Fcorr=Fobs10^Aex+Aem/2, Where Fcorr and Fobs are corrected and experimentally measured fluorescence intensities, respectively. […] The fluorescence intensity utilized in this paper was the corrected intensity.
(§4) Emission fluorescence spectra were measured in the 300–450 nm interval, at a fixed excitation wavelength of 280 nm. Occurrence of an emission maximum at 344 nm in the fluorescence spectrum of lipase can be attributed to the presence of tryptophan residue of lipase. Even though the intrinsic fluorescence of pancreatic lipase is attributed to three amino acid residues, phenylalanine (Phe), tyrosine (Tyr), and tryptophan (Trp), the fluorescence of Phe and Tyr residues at this wavelength is negligible, so intrinsic fluorescence of the fungal enzyme is mainly due to Trp. […] Several earlier reports have shown similar fluorescence quenching of protein upon interaction with various drug molecules, without any shift in the emission maximum. The observed quenching in the protein fluorescence can be induced by a variety of molecular interactions such as rearrangement of molecules, ground-state complex formation, excited-state reactions, energy transfer and collisional quenching.
In order to gain insight into quenching mechanism involved in linalool-lipase, carvacrol- lipase and thymol- lipase interaction, or to gain further insight into the mechanism of tertiary structure we analysed the fluorescence quenching data using Stern–Volmer equation. […] S1A–S1C Fig and Table 1. gives ksv and kq values of Lipase—lin as 1.73 x 10^4 M^-1 and 1.73 x 10^13 M^-1s^-1, Lipase—car as 2.17 x 10^3 and 2.17 x 10^12, Lipase—thy as 1.76 x 10^4 and 1.76 x 10^13 respectively. […] Binding constant and number of binding sites were determined by plotting log (F0—F)/F versus log [ligand] according to equation: Log[(F0–F)/F=logKa+nlogligand] where Ka and n are binding constants and stoichiometry of association process respectively. Linear relationship is obtained from log(F− F0) / F versus log[ligand].

[3] = molecular target: T1, Human Serum Albumin (HSA) (Homo sapiens, UniProt P02768); assay: Fluorescence quenching of HSA (Stern-Volmer and double-logarithmic plots); format: binding; details: for blue shift in the emission maximum of HSA: excitation 280nm, from 342 nm, throughout the titration
T1 construct: purchased Sigma-Aldrich
T1 sequence (P02768 25-609): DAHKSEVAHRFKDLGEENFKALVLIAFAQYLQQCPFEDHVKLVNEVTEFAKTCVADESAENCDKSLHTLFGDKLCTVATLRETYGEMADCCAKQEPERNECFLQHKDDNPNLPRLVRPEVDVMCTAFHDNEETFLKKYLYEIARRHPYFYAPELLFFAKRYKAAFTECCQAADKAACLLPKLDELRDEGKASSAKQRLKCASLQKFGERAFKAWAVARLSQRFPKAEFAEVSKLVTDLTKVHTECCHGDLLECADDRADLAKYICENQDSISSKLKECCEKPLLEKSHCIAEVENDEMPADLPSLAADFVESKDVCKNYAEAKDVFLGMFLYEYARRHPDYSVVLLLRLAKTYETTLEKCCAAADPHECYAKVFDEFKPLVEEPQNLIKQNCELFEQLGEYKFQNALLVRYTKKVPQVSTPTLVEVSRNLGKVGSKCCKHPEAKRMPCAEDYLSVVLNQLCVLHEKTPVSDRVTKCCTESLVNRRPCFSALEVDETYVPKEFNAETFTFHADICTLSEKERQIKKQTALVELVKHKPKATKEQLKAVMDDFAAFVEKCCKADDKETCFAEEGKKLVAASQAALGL
Experimental: as §1, §2, §3
(§5) The HSA were excited at 280nm and spectra were taken from 300nm to […].
The plot of F0/F against [linalool] at 298K is given as S3A Fig. The values of ksv and kq could be calculated from the slope of curves. The average lifetime of the fluorophore in the absence of the ligand as 6.38 × 10^−9 s for HSA [23]. […] Ka and ‘n’ were calculated from equation: Log[(F0–F)/F] = logKa + n log[linalool].

[4] = molecular target: T1, Human Serum Albumin (HSA); assay: Far-UV circular dichroism of HSA; details: 24 hours at 298.15 K, pH 7.4, native -17.76
Experimental: CD spectra were obtained over wavelength range of 200–250 nm on Jasco-1500 CD Spectrometer equipped with peltier type temperature controller. 0.1cm quartz cell were used to measure far UV CD spectrum. The concentration of protein used was 0.2 mg/ml (lipase) and 0.35 mg/ml (HSA). Each spectrum was scanned thrice and finally average of 3 was used to analyse the results.

lipase = molecular target: T2, lipase; assay: Intrinsic Trp fluorescence quenching of A. niger lipase (excitation 280 nm, ligand 50-400 uM, inner-filter corrected), 10 mM phosphate pH 7.4, samples incubated at 298 K for about 24 h; Ka from double-logarithmic plot.; format: binding
T2 construct: commercial (Sigma-Aldrich), dialyzed
Experimental: as §1, §2, §3
as §4, with “quenching. […]” for “quenching.”

HSA [5] = molecular target: T3, HSA (Homo sapiens, UniProt P02768); assay: UV-Vis absorption spectroscopy of HSA; format: binding; set-up: purchased Sigma-Aldrich; details: HSA 0.4mg/ml, shifted from 278 nm, 298.15 K, pH 7.4
T3 sequence (P02768 25-609): as above
Source text: UV-visible absorbance spectra were obtained using JASCO, V-560 spectrophotometer in the wavelength range 240 to 340 nm. The baseline was corrected for each spectrum.

HSA [6] = molecular target: T3, HSA; assay: Intrinsic Trp214 fluorescence quenching of HSA (excitation 280 nm, ligand 50-400 uM, inner-filter corrected), 10 mM phosphate pH 7.4, 298 K; Ka from double-logarithmic plot.; format: binding; set-up: gene ALB; commercial (Sigma-Aldrich), dialyzed; details: read-out: Ka(M^-1) (converted)
Experimental: as §1, §2, §3, §5
The plot of F0/F against [linalool] at 298K is given as S3A Fig. The values of ksv and kq could be calculated from the slope of curves. […] Ka and ‘n’ were calculated from equation: Log[(F0–F)/F] = logKa + n log[linalool].

Structure (SMILES)	inhibition of lipase activity (in words) (Aspergillus niger lipase [1])	inhibition of lipase (Aspergillus niger lipase [1])	lipase activity (Aspergillus niger lipase [1])	strength of binding to lipase (in words) (Aspergillus niger lipase [2])	binding affinity with Aspergillus niger lipase (order of magnitude) (Aspergillus niger lipase [2])	ksv (Stern-Volmer constant) (Aspergillus niger lipase [2]; lipase) [M⁻¹]	kq (quenching rate constant) (Aspergillus niger lipase [2]; lipase) [M⁻¹ s⁻¹]	Kd [3] [µM]	n (number of binding site) ([3]; HSA)	kq (quenching rate constant) ([3]; HSA, 298K) [M⁻¹ s⁻¹]	ksv (Stern-Volmer quenching constant) ([3]; HSA, 298K, ligand 50-400 μM) [M⁻¹]	blue shift in the emission maximum of HSA [3] [nm]	MRE x 10^3 at 222nm (complex_400 μM) [4]	Ka (lipase) [M⁻¹]	maximum absorption peak position of ligand-HSA complex (HSA [5]) [nm]	Kd (HSA [6]) [µM]	further results
Cc1ccc(C(C)C)cc1O [carvacrol]	markedly inhibited lipase activity	approximately 50%	approximately 50%	strong binders	~10^7	2170	2.17e+12	~100	1.29	2.33e+12	2330	1	-24.91	4.6e+07	278.2	45.5	Ka (binding constant) (Aspergillus niger lipase [2]; lipase, pH 7.4, double-logarithmic plot): 4.66e+07 M⁻¹; Ka (binding constant) ([3]; HSA, double-logarithmic plot): 22000 M⁻¹
C=CC(C)(O)CCC=C(C)C (stereo not shown) [linalool]	markedly inhibited lipase activity	approximately 50%	approximately 50%	weak binder	~10^3	17300	1.73e+13	~100	1.36	3.32e+12	3320	2	-23.13	5300	278.5	29.4	association constant / binding affinity with HSA (order of magnitude) ([3]; unit inferred): ~10000 M⁻¹
Cc1ccc(C(C)C)c(O)c1 [thymol]	markedly inhibited lipase activity	approximately 50%	approximately 50%	strong binders	~10^9	17600	1.76e+13	–	–	–	–	–	–	2.6e+09	278.4	–	kq (quenching rate constant) [3]: 3.21e+13 M⁻¹ s⁻¹; ksv (Stern-Volmer quenching constant) [3]: 32100 M⁻¹
